Patent US20140343049A1, “DIHYDROFURAN DERIVATIVES AS INSECTICIDAL COMPOUNDS” (SYNGENTA PARTICIPATIONS AG, priority 2011, published 2014)

Tests used:
Assay type in all cases: in vivo
[1] = test system: Spodoptera littoralis (Egyptian cotton leafworm); assay: Spodoptera littoralis cotton leaf disc spray test; conditions: foliar, 72 h, cotton leaf discs sprayed at 200 ppm, 5 L1 larvae, mortality, feeding behavior, growth regulation 3 days after treatment
Description: Cotton leaf discs were placed on agar in a 24-well microtiter plate and sprayed with test solutions at an application rate of 200 ppm. After drying, the leaf discs were infested with 5 L1 larvae. The samples were checked for mortality, feeding behavior, and growth regulation 3 days after treatment (DAT).

[2] = test system: Heliothis virescens (tobacco budworm); assay: Heliothis virescens egg test on artificial diet; conditions: 96 h, 200 ppm (concentration in well 18 ppm), eggs 0-24 h old, 4 days, egg mortality, larval mortality, growth regulation
Procedure: Eggs (0-24 h old) were placed in 24-well microtiter plate on artificial diet and treated with test solutions at an application rate of 200 ppm (concentration in well 18 ppm) by pipetting. After an incubation period of 4 days, samples were checked for egg mortality, larval mortality, and growth regulation.

[3] = test system: Diabrotica balteata (corn root worm); assay: Diabrotica balteata L2 larvae test on artificial diet; conditions: 120 h, 200 ppm (concentration in well 18 ppm), 5 days, larval mortality and growth regulation
Procedure: (§1) A 24-well microtiter plate (MTP) with artificial diet was treated with test solutions at an application rate of 200 ppm (concentration in well 18 ppm) by pipetting. After drying, the MTPs were infested with L2 larvae (6-10 per well). After an incubation period of 5 days, samples were checked for larval mortality and growth regulation.
as §1, with “12.5” for “200”, “MTP's” for “MTPs”

[4] = test system: Plutella xylostella (diamond back moth); assay: Plutella xylostella L2 larvae test on artificial diet; conditions: 144 h, 200 ppm (concentration in well 18 ppm), 6 days, larval mortality and growth regulation
Procedure: as §1, with “24-well” for “A 24-well”, “(7-12” for “(6-10”, “6” for “5”

| SMILES | pest or weed control at 200 ppm [1] [%] | pest or weed control at 200 ppm [2] [%] | pest or weed control at 200 ppm [3] [%] | pest or weed control at 200 ppm [4] [%] |
| --- | --- | --- | --- | --- |
| CCCCNC(=O)c1ccc(C2=CC(c3cc(Cl)cc(Cl)c3)(C(F)(F)F)OC2)cc1C (centres unmarked) [Compound A5] | ≥ 80 | ≥ 80 | ≥ 80 | ≥ 80 |
| COCC(C)NC(=O)c1ccc(C2=CC(c3cc(Cl)cc(Cl)c3)(C(F)(F)F)OC2)cc1C (centres unmarked) [Compound A6] | ≥ 80 | ≥ 80 | ≥ 80 | ≥ 80 |
| Cc1cc(C2=CC(c3cc(Cl)cc(Cl)c3)(C(F)(F)F)OC2)ccc1C(=O)NCC1CCCO1 (centres unmarked) [Compound A7] | ≥ 80 | ≥ 80 | ≥ 80 | ≥ 80 |
| Cc1cc(C2=CC(c3cc(Cl)cc(Cl)c3)(C(F)(F)F)OC2)ccc1C(=O)NCc1ccccc1 (centres unmarked) [Compound A8] |  |  | ≥ 80 |  |
| Cc1cc(C2=CC(c3cc(Cl)cc(Cl)c3)(C(F)(F)F)OC2)ccc1C(=O)NC1CCSC1=O (centres unmarked) [Compound A21] | ≥ 80 | ≥ 80 | ≥ 80 | ≥ 80 |
| Cc1cc(C2=CC(c3cc(Cl)cc(Cl)c3)(C(F)(F)F)OC2)ccc1C(=O)NC1CCCCC1C (centres unmarked) [Compound A32] |  |  | ≥ 80 | ≥ 80 |
| Cc1cc(C2=CC(c3cc(Cl)cc(Cl)c3)(C(F)(F)F)OC2)ccc1C(=O)NCCc1ccccc1 (centres unmarked) [Compound A39] |  | ≥ 80 | ≥ 80 | ≥ 80 |
| Cc1cc(C2=CC(c3cc(Cl)cc(Cl)c3)(C(F)(F)F)OC2)ccc1C(=O)NCCc1cccs1 (centres unmarked) [Compound A41] |  |  | ≥ 80 | ≥ 80 |
| Cc1cc(C2=CC(c3cc(Cl)cc(Cl)c3)(C(F)(F)F)OC2)ccc1C(=O)NCCOc1ccccc1 (centres unmarked) [Compound A42] | ≥ 80 | ≥ 80 | ≥ 80 |  |
| Cc1cc(C2=CC(c3cc(Cl)cc(Cl)c3)(C(F)(F)F)OC2)ccc1C(=O)NCc1ccccc1C(F)(F)F (centres unmarked) [Compound A48] |  |  | ≥ 80 |  |
| Cc1cc(C2=CC(c3cc(Cl)cc(Cl)c3)(C(F)(F)F)OC2)ccc1C(=O)NCc1ccccc1N1CCCCC1 (centres unmarked) [Compound A50] |  |  | ≥ 80 |  |
| Cc1cc(C2=CC(c3cc(Cl)cc(Cl)c3)(C(F)(F)F)OC2)ccc1C(=O)NC1CCN(Cc2ccccc2)C1 (centres unmarked) [Compound A53] | ≥ 80 |  | ≥ 80 |  |
| Cc1cc(C2=CC(c3cc(Cl)cc(Cl)c3)(C(F)(F)F)OC2)ccc1C(=O)NCCN1CCN(Cc2ccccc2)CC1 (centres unmarked) [Compound A54] |  | ≥ 80 | ≥ 80 |  |
| Cc1cc(C2=CC(c3cc(Cl)cc(Cl)c3)(C(F)(F)F)OC2)ccc1C(=O)NCc1ccco1 (centres unmarked) [Compound A55] | ≥ 80 | ≥ 80 | ≥ 80 | ≥ 80 |
| Cc1cc(C2=CC(c3cc(Cl)cc(Cl)c3)(C(F)(F)F)OC2)ccc1C(=O)Nc1ccc2[nH]ncc2c1 (centres unmarked) [Compound A60] | ≥ 80 | ≥ 80 | ≥ 80 | ≥ 80 |
| Cc1cc(C2=CC(c3cc(Cl)cc(Cl)c3)(C(F)(F)F)OC2)ccc1C(=O)Nc1ccc(-n2cccc2)cc1 (centres unmarked) [Compound A61] |  |  | ≥ 80 |  |
| Cc1cc(C2=CC(c3cc(Cl)cc(Cl)c3)(C(F)(F)F)OC2)ccc1C(=O)Nc1ccc2c(C)cc(=O)oc2c1 (centres unmarked) [Compound A65] |  |  | ≥ 80 |  |
| Cc1cc(C2=CC(c3cc(Cl)cc(Cl)c3)(C(F)(F)F)OC2)ccc1C(=O)Nc1ccc(S(=O)(=O)N(C)C)cc1 (centres unmarked) [Compound A66] |  | ≥ 80 | ≥ 80 |  |
| Cc1cc(NC(=O)c2ccc(C3=CC(c4cc(Cl)cc(Cl)c4)(C(F)(F)F)OC3)cc2C)n(C)n1 (centres unmarked) [Compound A67] | ≥ 80 | ≥ 80 |  | ≥ 80 |
| Cc1cc(O)nc(NC(=O)c2ccc(C3=CC(c4cc(Cl)cc(Cl)c4)(C(F)(F)F)OC3)cc2C)n1 (centres unmarked) [Compound A69] |  | ≥ 80 | ≥ 80 | ≥ 80 |
| Cc1cc(C2=CC(c3cc(Cl)cc(Cl)c3)(C(F)(F)F)OC2)ccc1C(=O)Nc1ncnc2[nH]cnc12 (centres unmarked) [Compound A72] | ≥ 80 |  |  |  |
| Cc1nnc(NC(=O)c2ccc(C3=CC(c4cc(Cl)cc(Cl)c4)(C(F)(F)F)OC3)cc2C)s1 (centres unmarked) [Compound A75] |  |  | ≥ 80 |  |
| O=C(NCC(F)(F)F)c1ccc(C2=CC(c3cc(Cl)cc(Cl)c3)(C(F)(F)F)OC2)nc1 (centres unmarked) [Compound B1] |  |  |  | ≥ 80 |

| SMILES | pest or weed control at 200 ppm [1] [%] | pest or weed control at 200 ppm [2] [%] | pest or weed control at 200 ppm [3] [%] | pest or weed control at 200 ppm [4] [%] |
| --- | --- | --- | --- | --- |
| CCNC(=O)c1ccc(C2=CC(c3cc(Cl)cc(Cl)c3)(C(F)(F)F)OC2)nc1 (centres unmarked) [Compound B2] |  |  | ≥ 80 |  |
| O=C(CNC(=O)c1ccc(C2=CC(c3cc(Cl)cc(Cl)c3)(C(F)(F)F)OC2)nc1)NCC(F)(F)F (centres unmarked) [Compound B5] |  | ≥ 80 |  |  |
| O=C(NCCC(F)(F)F)c1ccc(C2=CC(c3cc(Cl)cc(Cl)c3)(C(F)(F)F)OC2)nc1 (centres unmarked) [Compound B6] |  |  | ≥ 80 |  |
| CCC(C)NC(=O)c1ccc(C2=CC(c3cc(Cl)cc(Cl)c3)(C(F)(F)F)OC2)nc1 (centres unmarked) [Compound B7] |  |  |  | ≥ 80 |
| O=C(NCC1CCCO1)c1ccc(C2=CC(c3cc(Cl)cc(Cl)c3)(C(F)(F)F)OC2)nc1 (centres unmarked) [Compound B8] |  |  |  | ≥ 80 |
| COc1ccc(CNC(=O)c2ccc(C3=CC(c4cc(Cl)cc(Cl)c4)(C(F)(F)F)OC3)nc2)cc1 (centres unmarked) [Compound B12] |  |  | ≥ 80 |  |
| O=C(NCc1ccc(Cl)nc1)c1ccc(C2=CC(c3cc(Cl)cc(Cl)c3)(C(F)(F)F)OC2)nc1 (centres unmarked) [Compound B14] |  | ≥ 80 |  |  |
| CC1(NC(=O)c2ccc(C3=CC(c4cc(Cl)cc(Cl)c4)(C(F)(F)F)OC3)nc2)CSC1 (centres unmarked) [Compound B19] |  |  | ≥ 80 |  |
| O=C(NC1CCC1)c1ccc(C2=CC(c3cc(Cl)cc(Cl)c3)(C(F)(F)F)OC2)nc1 (centres unmarked) [Compound B23] |  |  |  | ≥ 80 |
| Cc1nc(C2=CC(c3cc(Cl)cc(Cl)c3)(C(F)(F)F)OC2)ccc1C(=O)NCCC(F)(F)F (centres unmarked) [Compound C6] | ≥ 80 |  | ≥ 80 | ≥ 80 |
| Cc1nc(C2=CC(c3cc(Cl)cc(Cl)c3)(C(F)(F)F)OC2)ccc1C(=O)NCC1CCCO1 (centres unmarked) [Compound C8] | ≥ 80 | ≥ 80 | ≥ 80 |  |
| Cc1nc(C2=CC(c3cc(Cl)cc(Cl)c3)(C(F)(F)F)OC2)ccc1C(=O)Nc1cccc(F)c1 (centres unmarked) [Compound C15] | ≥ 80 | ≥ 80 |  | ≥ 80 |
| Cc1cc(NC(=O)c2ccc(C3=CC(c4cc(Cl)cc(Cl)c4)(C(F)(F)F)OC3)nc2C)n(C)n1 (centres unmarked) [Compound C16] |  | ≥ 80 |  | ≥ 80 |
| CSCC(C)(C)NC(=O)c1ccc(C2=CC(c3cc(Cl)cc(Cl)c3)(C(F)(F)F)OC2)nc1C (centres unmarked) [Compound C18] | ≥ 80 |  | ≥ 80 |  |
| CCCCNC(=O)c1ccc(C2=CC(c3cc(Cl)cc(Cl)c3)(C(F)(F)F)OC2=O)cc1C (centres unmarked) [Compound E3] |  |  |  | ≥ 80 |
| Cc1cc(C2=CC(c3cc(Cl)cc(Cl)c3)(C(F)(F)F)OC2=O)ccc1C(=O)NCCC(F)(F)F (centres unmarked) [Compound E6] | ≥ 80 |  |  | ≥ 80 |
| Cc1cc(C2=CC(c3cc(Cl)cc(Cl)c3)(C(F)(F)F)OC2=O)ccc1C(=O)NCc1ccccc1 (centres unmarked) [Compound E8] | ≥ 80 |  |  |  |
| Cc1cc(C2=CC(c3cc(Cl)cc(Cl)c3)(C(F)(F)F)OC2=O)ccc1C(=O)NCc1ccccc1F (centres unmarked) [Compound E9] |  |  |  | ≥ 80 |
| COc1ccc(CNC(=O)c2ccc(C3=CC(c4cc(Cl)cc(Cl)c4)(C(F)(F)F)OC3=O)cc2C)cc1 (centres unmarked) [Compound E11] |  |  |  | ≥ 80 |
| Cc1cc(C2=CC(c3cc(Cl)cc(Cl)c3)(C(F)(F)F)OC2=O)ccc1C(=O)NCc1ccccn1 (centres unmarked) [Compound E13] | ≥ 80 |  | ≥ 80 | ≥ 80 |
| Cc1csc(NC(=O)c2ccc(C3=CC(c4cc(Cl)cc(Cl)c4)(C(F)(F)F)OC3=O)cc2C)n1 (centres unmarked) [Compound E15] | ≥ 80 |  | ≥ 80 |  |
| Cc1cc(C2=CC(c3cc(Cl)cc(Cl)c3)(C(F)(F)F)OC2=O)ccc1C(=O)NC1CSC1 (centres unmarked) [Compound E17] |  |  | ≥ 80 |  |
| Cc1cc(C2=CC(c3cc(Cl)cc(Cl)c3)(C(F)(F)F)OC2=O)ccc1C(=O)NC1C[S+]([O-])C1 (centres unmarked) [Compound E19] | ≥ 80 |  |  |  |
